Values quoted from earlier work in patent US7390503B1, “Ondansetron orally disintegrating tablets” (Barr Laboratories, Inc., priority 2003, dated 2008).
Counter-ions that a name gives are not always drawn. Like-named read-outs stand apart in the source and are kept apart here.

Details: general statement, no test described

solubility in water (hydrochloride dihydrate)	solubility in water	Structure (SMILES)
freely soluble in water	–	Cc1nccn1CC1CCc2c(c3ccccc3n2C)C1=O (centres unmarked) [Ondansetron hydrochloride dihydrate]
–	soluble in water	Cc1nccn1CC1CCc2c(c3ccccc3n2C)C1=O (centres unmarked) [ondansetron in free base form, 1,2,3,9-tetrahydro-9-methyl-3-[(2-methyl-1H-imidazol-1-yl)methyl]-4H-carbazol-4-one]
